Data reported in ChEMBL document CHEMBL5055680, “AMPK inhibitor BML-275 induces neuroprotection through decreasing cyt c and AIF expression after transient brain ischemia” (2021).
Active and inactive are the calls of the source. The rule behind the calls is not given here.

Key:
Mus musculus [1] = assay: (§1) Neuroprotective activity in C57BL/6 mouse model of transient middle cerebral artery occlusion induced cerebral ischemia reperfusion injury assessed as inhibition of apoptosis by measuring decrease in TUNEL positive nuclei in cortex at 10 mg/kg, ip measured after 12 hrs by TUNEL staining based assay (reference value: 53.64 +/- 7.63); format: functional
[2] = Downregulation of cyt-c expression in cortex of C57BL/6 mouse model of transient middle cerebral artery occlusion induced cerebral ischemia reperfusion injury measured after 24 hrs of reperfusion by immunohistochemistry; format: functional
Mus musculus [3] = assay: Neuroprotective activity in C57BL/6 mouse model of transient middle cerebral artery occlusion induced cerebral ischemia reperfusion injury assessed reduction in infarct size at 10 mg/kg, ip measured after 24 hrs by TTC staining based assay; format: functional, organism-based
Mus musculus [4] = assay: Neuroprotective activity in C57BL/6 mouse model of transient middle cerebral artery occlusion induced cerebral ischemia reperfusion injury assessed as change in infract volume at 10 mg/kg, ip measured after 24 hrs by TTC staining based assay (reference value: 21.86 +/- 4.65 %); format: functional
Mus musculus [5] = assay: Neuroprotective activity in C57BL/6 mouse model of transient middle cerebral artery occlusion induced cerebral ischemia reperfusion injury assessed as neurological deficits at 10 mg/kg, ip measured 24 hrs after reperfusion by […] (reference value: 5.86 +/- 0.64); format: functional
Mus musculus [6] = species: Mus musculus; assay: Neuroprotective activity in C57BL/6 mouse model of transient middle cerebral artery occlusion induced cerebral ischemia reperfusion injury assessed as neuronal apoptosis by measuring increase in caspase-3 positive cells incubated for 1 hrs by immunohistochemistry; format: functional, organism-based
Mus musculus [7] = species: Mus musculus; assay: Neuroprotective activity in C57BL/6 mouse model of transient middle cerebral artery occlusion induced cerebral ischemia reperfusion injury assessed as neuronal apoptosis by measuring increase in TUNEL positive nuclei measured after 12 hrs by TUNEL staining based assay; format: functional, organism-based
Mus musculus [8] = assay: Neuroprotective activity in C57BL/6 mouse model of transient middle cerebral artery occlusion induced cerebral ischemia reperfusion injury assessed as inhibition of apoptosis by measuring decrease in caspase-3 positive cells in cortex at 10 mg/kg, ip incubated for 1 hrs by immunohistochemistry (reference value: 7.58 +/- 2.15); format: functional
Mus musculus [9] = assay: as §1, with “hippocampus” for “cortex”, “55.42” for “53.64”, “4.86)” for “7.63)”; format: functional
[10] = Downregulation of cyt-c expression in hippocampus of C57BL/6 mouse model of transient middle cerebral artery occlusion induced cerebral ischemia reperfusion injury measured after 24 hrs of reperfusion by immunohistochemistry; format: functional
[11] = (§2) Downregulation of cyt-c expression in cortex of C57BL/6 mouse model of transient middle cerebral artery occlusion induced cerebral ischemia reperfusion injury at 10 mg/kg, ip measured after 24 hrs of reperfusion by immunohistochemistry (reference value: 15.58 +/- 2.34); format: functional
[12] = Downregulation of cyt-c expression in hippocampus of C57BL/6 mouse model of transient middle cerebral artery occlusion induced cerebral ischemia reperfusion injury at 10 mg/kg, ip measured after 24 hrs of reperfusion by immunohistochemistry (reference value: 20.52+/- 2.08); format: functional
[13] = as §2, with “AIF” for “cyt-c”, “injury assessed as AIP-posotive cells in ischemic cortex” for “injury”, “46.7” for “15.58”, “3.45)” for “2.34)”; format: functional
[14] = as §2, with “AIF” for “cyt-c”, “injury assessed as AIP-posotive cells in hippocampus” for “injury”, “27.35” for “15.58”, “3.67)” for “2.34)”; format: functional

With c1cc(-c2cnn3cc(-c4ccc(OCCN5CCCCC5)cc4)cnc23)ccn1 [DORSOMORPHIN] the Activity (Mus musculus [1]) was 53.64, the “fold change (FC)” value [2] was 45.32 and the Activity (Mus musculus [3]) was “Active”. For the same molecule, the Activity (Mus musculus [4]) was 42.56%, the Activity (Mus musculus [5]) was 9.26 and the Activity (Mus musculus [6]) was “Active”. For the same molecule, the Activity (Mus musculus [7]) was “Active”, the Activity (Mus musculus [8]) was 15.63 and the Activity (Mus musculus [9]) was 55.42. For the same molecule, the “fold change (FC)” value [10] was 52.08, the “fold change (FC)” value [11] was 45.32 and the “fold change (FC)” value [12] was 52.08. For the same molecule, the “fold change (FC)” value [13] was 26.36 and the “fold change (FC)” value [14] was 13.17.
